Source: PubChem BioAssay AID2060891 (Molecular Pharmacology Branch, DTP, NCI, 2025)
pIC50: −log10 of the molar value.

Tested on: K98450-129-R-PDC complex spheroid growth, percent test/control
Assay: Anticancer human tumor K98450-129-R-PDC patient-derived colon adenocarcinoma cell line growth inhibition [RAS]
Conditions: for pIC50: curve of first compound; for viability, T/C: stronger effect = lower value
In short: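 Tumour cells grown as complex spheroids with HUVEC endothelial cells and mesenchymal stem cells, treated with RAS pathway inhibitor combinations. Each agent spans half-log steps from near clinical Cmax, or 10 microM where Cmax is unknown.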

[1] = second compound 0.00316 µM, first compound 0.0316 µM
[2] = second compound 0.00316 µM, first compound 0.1 µM
[3] = second compound 0.00316 µM, first compound 0.316 µM
[4] = second compound 0.00316 µM, first compound 1 µM
[5] = second compound 0.01 µM, first compound 0.0316 µM
[6] = second compound 0.01 µM, first compound 0.1 µM
[7] = second compound 0.01 µM, first compound 0.316 µM
[8] = second compound 0.01 µM, first compound 1 µM
[9] = second compound 0.0316 µM, first compound 0.0316 µM
[10] = second compound 0.0316 µM, first compound 0.1 µM
[11] = second compound 0.0316 µM, first compound 0.316 µM
[12] = second compound 0.0316 µM, first compound 1 µM
[13] = second compound 0.1 µM, first compound 0.0316 µM
[14] = second compound 0.1 µM, first compound 0.1 µM
[15] = second compound 0.1 µM, first compound 0.316 µM
[16] = second compound 0.1 µM, first compound 1 µM
[17] = second compound 0.316 µM, first compound 0.0316 µM
[18] = second compound 0.316 µM, first compound 0.1 µM
[19] = second compound 0.316 µM, first compound 0.316 µM
[20] = second compound 0.316 µM, first compound 1 µM
[21] = second compound 1 µM, first compound 0.0316 µM
[22] = second compound 1 µM, first compound 0.1 µM
[23] = second compound 1 µM, first compound 0.316 µM
[24] = second compound 1 µM, first compound 1 µM
[25] = second compound 0.00316 µM, first compound 3.16 µM
[26] = second compound 0.00316 µM, first compound 10 µM
[27] = second compound 0.01 µM, first compound 3.16 µM
[28] = second compound 0.01 µM, first compound 10 µM
[29] = second compound 0.0316 µM, first compound 3.16 µM
[30] = second compound 0.0316 µM, first compound 10 µM
[31] = second compound 0.1 µM, first compound 3.16 µM
[32] = second compound 0.1 µM, first compound 10 µM
[33] = second compound 0.316 µM, first compound 3.16 µM
[34] = second compound 0.316 µM, first compound 10 µM
[35] = second compound 1 µM, first compound 3.16 µM
[36] = second compound 1 µM, first compound 10 µM
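Also: spheroids exposed to agents for seven days before the viability readout.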
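For viability, T/C in this document: luminescence used as a proxy for viable cell amount.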

## CCN1CCN(Cc2ccc(Nc3ncc(F)c(-c4cc(F)c5nc(C)n(C(C)C)c5c4)n3)nc2)CC1 + C=CC(=O)N1CCN(c2nc(OCC3CCCN3C)nc3c(F)c(-c4nc(N)cc(C)c4C(F)(F)F)c(Cl)cc23)C(C)C1
Second compound 0.00316 µM
  pIC50: 6.29
Second compound 0.01 µM
  pIC50: 6.75
Second compound 0.0316 µM
  pIC50: 7.18
Second compound 0.1 µM
  pIC50: 7.69
Second compound 0.316 µM
  pIC50: > 8.50
Second compound 1 µM
  pIC50: > 8.50
Second compound 0.00316 µM, first compound 0.00316 µM
  viability, T/C: 95%
Second compound 0.00316 µM, first compound 0.01 µM
  viability, T/C: 97.3%
[1]
  viability, T/C: 81.8%
[2]
  viability, T/C: 75.2%
[3]
  viability, T/C: 48.7%
[4]
  viability, T/C: 47.8%
Second compound 0.01 µM, first compound 0.00316 µM
  viability, T/C: 90.8%
Second compound 0.01 µM, first compound 0.01 µM
  viability, T/C: 86.8%
[5]
  viability, T/C: 73.7%
[6]
  viability, T/C: 57.8%
[7]
  viability, T/C: 42.3%
[8]
  viability, T/C: 36.2%
Second compound 0.0316 µM, first compound 0.00316 µM
  viability, T/C: 73.3%
Second compound 0.0316 µM, first compound 0.01 µM
  viability, T/C: 68.3%
[9]
  viability, T/C: 62.5%
[10]
  viability, T/C: 43.2%
[11]
  viability, T/C: 32.4%
[12]
  viability, T/C: 31.9%
Second compound 0.1 µM, first compound 0.00316 µM
  viability, T/C: 60.2%
Second compound 0.1 µM, first compound 0.01 µM
  viability, T/C: 55.1%
[13]
  viability, T/C: 46.6%
[14]
  viability, T/C: 36.6%
[15]
  viability, T/C: 27%
[16]
  viability, T/C: 29.2%
Second compound 0.316 µM, first compound 0.00316 µM
  viability, T/C: 44.4%
Second compound 0.316 µM, first compound 0.01 µM
  viability, T/C: 41.2%
[17]
  viability, T/C: 33.1%
[18]
  viability, T/C: 27.9%
[19]
  viability, T/C: 24.2%
[20]
  viability, T/C: 28.4%
Second compound 1 µM, first compound 0.00316 µM
  viability, T/C: 31.8%
Second compound 1 µM, first compound 0.01 µM
  viability, T/C: 32.1%
[21]
  viability, T/C: 28.7%
[22]
  viability, T/C: 24.3%
[23]
  viability, T/C: 24.6%
[24]
  viability, T/C: 29.2%

## Cc1nc(N2CCC3(CC2)COC(C)C3N)c(CO)nc1Sc1ccnc(N)c1Cl (stereo unspecified) + C=CC(=O)N1CCN(c2nc(OCC3CCCN3C)nc3c(F)c(-c4nc(N)cc(C)c4C(F)(F)F)c(Cl)cc23)C(C)C1
Second compound 0.00316 µM
  pIC50: 6.24
Second compound 0.01 µM
  pIC50: 6.63
Second compound 0.0316 µM
  pIC50: 7.08
Second compound 0.1 µM
  pIC50: > 7.50
Second compound 0.316 µM
  pIC50: > 7.50
Second compound 1 µM
  pIC50: > 7.50
[1]
  viability, T/C: 88.3%
[2]
  viability, T/C: 87.9%
[3]
  viability, T/C: 66.2%
[4]
  viability, T/C: 34.3%
[25]
  viability, T/C: 10.5%
[26]
  viability, T/C: 7.72%
[5]
  viability, T/C: 82.9%
[6]
  viability, T/C: 69.6%
[7]
  viability, T/C: 44.6%
[8]
  viability, T/C: 11.6%
[27]
  viability, T/C: 9.41%
[28]
  viability, T/C: 7.24%
[9]
  viability, T/C: 61.2%
[10]
  viability, T/C: 47.6%
[11]
  viability, T/C: 20.9%
[12]
  viability, T/C: 9.03%
[29]
  viability, T/C: 9.29%
[30]
  viability, T/C: 7.4%
[13]
  viability, T/C: 40.2%
[14]
  viability, T/C: 20.5%
[15]
  viability, T/C: 11%
[16]
  viability, T/C: 8.4%
[31]
  viability, T/C: 8.28%
[32]
  viability, T/C: 7.55%
[17]
  viability, T/C: 23.4%
[18]
  viability, T/C: 14.7%
[19]
  viability, T/C: 10.1%
[20]
  viability, T/C: 9.11%
[33]
  viability, T/C: 8.21%
[34]
  viability, T/C: 7.31%
[21]
  viability, T/C: 21.6%
[22]
  viability, T/C: 15.2%
[23]
  viability, T/C: 10.9%
[24]
  viability, T/C: 8.92%
[35]
  viability, T/C: 8.81%
[36]
  viability, T/C: 7.65%

## NC1c2ccccc2OC12CCN(c1cnc3c(N4CCCc5ncccc54)n[nH]c3n1)CC2 (stereo unspecified) + C=CC(=O)N1CCN(c2nc(OCC3CCCN3C)nc3c(F)c(-c4nc(N)cc(C)c4C(F)(F)F)c(Cl)cc23)C(C)C1
Second compound 0.00316 µM
  pIC50: 7.23
Second compound 0.01 µM
  pIC50: > 7.50
Second compound 0.0316 µM
  pIC50: > 7.50
Second compound 0.1 µM
  pIC50: > 7.50
Second compound 0.316 µM
  pIC50: > 7.50
Second compound 1 µM
  pIC50: > 7.50
[1]
  viability, T/C: 71.8%
[2]
  viability, T/C: 31.1%
[3]
  viability, T/C: 8.4%
[4]
  viability, T/C: 7.7%
[25]
  viability, T/C: 6.2%
[26]
  viability, T/C: 4.82%
[5]
  viability, T/C: 48.1%
[6]
  viability, T/C: 13%
[7]
  viability, T/C: 7.99%
[8]
  viability, T/C: 7.31%
[27]
  viability, T/C: 6.81%
[28]
  viability, T/C: 4.84%
[9]
  viability, T/C: 16.9%
[10]
  viability, T/C: 10.2%
[11]
  viability, T/C: 8.19%
[12]
  viability, T/C: 7.23%
[29]
  viability, T/C: 5.99%
[30]
  viability, T/C: 4.9%
[13]
  viability, T/C: 12.3%
[14]
  viability, T/C: 8.86%
[15]
  viability, T/C: 8.05%
[16]
  viability, T/C: 6.93%
[31]
  viability, T/C: 6.33%
[32]
  viability, T/C: 4.82%
[17]
  viability, T/C: 10.9%
[18]
  viability, T/C: 8.75%
[19]
  viability, T/C: 8.02%
[20]
  viability, T/C: 6.49%
[33]
  viability, T/C: 6.35%
[34]
  viability, T/C: 5.02%
[21]
  viability, T/C: 10.8%
[22]
  viability, T/C: 9.4%
[23]
  viability, T/C: 8.01%
[24]
  viability, T/C: 6.8%
[35]
  viability, T/C: 6.75%
[36]
  viability, T/C: 5.01%
